The values below are quoted from earlier work in article PMC8854719, “Phase 1A/1B dose-escalation and -expansion study to evaluate the safety, pharmacokinetics, food effects and antitumor activity of pamiparib in advanced solid tumours” (British Journal of Cancer, 2021).

Molecules are shown by their SMILES. Where two headings read alike, the source gives them in different places.

The conditions of series [1]: cited from earlier work.
Series [2] deals with ovarian cancer. To be noted: Phase 2 studies, BRCAmut ovarian cancer after prior platinum-based chemotherapy; cited from earlier work.
The mark [3] stands for this setting: other monotherapy studies in advanced cancer (rucaparib: anaemia/decreased haemoglobin).
[4] abbreviates: separate Phase 3 trials in ovarian cancer.

As for `O=C(c1cc(Cc2n[nH]c(=O)c3ccccc23)ccc1F)N1CCN(C(=O)C2CC2)CC1` [olaparib], the “Anaemia, Grade ≥3” value in series [1] (setting [3]) is reported as 17%. In series [1] (setting [4]), the “Anaemia, Grade ≥3” value is reported as 19% and the “Anaemia, any Grade” value is on record as 44%. In series [2], the ORR is 31.1%.
With `CNCc1ccc(-c2[nH]c3cc(F)cc4c3c2CCNC4=O)cc1` [rucaparib], the “Anaemia, Grade ≥3” value is given as 24.9% in series [1] (setting [3]) and 19% in series [1] (setting [4]). The “Anaemia, any Grade” value in series [1] (setting [4]) is recorded as 37%. In series [2], the ORR is given as 53.8%.
Turning to `NC(=O)c1cccc2cn(-c3ccc([C@@H]4CCCNC4)cc3)nc12` [niraparib], in series [1] (setting [3]), the “Anaemia, Grade ≥3” value was 24%. Further, in series [1] (setting [4]), the “Anaemia, Grade ≥3” value was 25% and the “Anaemia, any Grade” value is on record as 50%. The ORR in series [2] is listed as 28.0%.
